Measured values: US12552799B2, “Triazolone compounds” (Nxera Pharma UK Limited, priority 2020, dated 2026)

Tests used:
human CB1 receptor = human CB1 receptor (Homo sapiens (Human), UniProt P21554); test: CB1 receptor antagonism, agonist-induced cAMP modulation (HTRF) in transfected CHO cells; format: cell-based; details: inhibition of control response to 3 nM CP 55940, cAMP HTRF, read-out: Antag IC50
Method: Receptor antagonism: Evaluation of the antagonist activity of compounds at the human CB1 receptor expressed in transfected CHO cells, determined by measuring their effects on agonist-induced cAMP modulation using the HTRF detection method.
The cells are suspended in HBSS buffer (Invitrogen) complemented with 20 mM HEPES (pH 7.4), then distributed in microplates at a density of 5.10^3 cells/well and preincubated for 5 min at room temperature in the presence of either of the following: HBSS (stimulated control), the reference antagonist AM 281 at 3 μM (basal control) or various concentrations (IC50 determination), or the test compounds.
Thereafter, the reference agonist CP 55940 and the adenylyl cyclase activator NKH 477 are added at respective final concentrations of 3 nM and 3 μM.
For basal control measurements, CP 55940 is omitted from the wells containing 3 μM AM 281.
Following 20 min incubation at 37° C., the cells are lysed and the fluorescence acceptor (D2-labeled cAMP) and fluorescence donor (anti-cAMP antibody labeled with europium cryptate) are added.
After 60 min at room temperature, the fluorescence transfer is measured at λex=337 nm and λem=620 and 665 nm using a microplate reader (Rubystar, BMG). The cAMP concentration is determined by dividing the signal measured at 665 nm by that measured at 620 nm (ratio).
The results are expressed as a percent inhibition of the control response to 3 nM CP 55940.
The standard reference antagonist is AM 281, which is tested in each experiment at several concentrations to generate a concentration-response curve from which its IC50 value is calculated.

[1] = biological target: human CB-1 cannabinoid receptor (Homo sapiens (Human), UniProt P21554); test: CB-1 receptor radioligand binding assay ([3H]CP 55940, transfected CHO cell membranes); details: 0.5 nM [3H]CP 55940, 120 min at 37° C., agonist site
human CB-1 cannabinoid receptor, sequence (P21554 whole entry): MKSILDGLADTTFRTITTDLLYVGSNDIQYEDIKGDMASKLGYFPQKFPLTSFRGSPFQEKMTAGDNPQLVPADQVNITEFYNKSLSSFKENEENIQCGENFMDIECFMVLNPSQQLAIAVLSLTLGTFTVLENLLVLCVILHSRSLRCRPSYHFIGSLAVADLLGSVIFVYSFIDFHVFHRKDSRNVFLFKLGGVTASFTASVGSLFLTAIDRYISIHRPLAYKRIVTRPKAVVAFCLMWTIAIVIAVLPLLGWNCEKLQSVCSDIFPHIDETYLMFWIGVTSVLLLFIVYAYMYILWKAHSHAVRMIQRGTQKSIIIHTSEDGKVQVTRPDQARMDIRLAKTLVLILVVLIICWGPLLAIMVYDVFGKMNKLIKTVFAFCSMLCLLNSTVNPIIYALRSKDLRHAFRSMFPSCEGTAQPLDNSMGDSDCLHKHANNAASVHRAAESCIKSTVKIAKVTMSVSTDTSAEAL
Method: Nonspecific binding is determined in the presence of 10 μM WIN 55212-2.
Following incubation, the samples are filtered rapidly under vacuum through glass fiber filters (GF/B, Packard) presoaked with 0.3% PEI and rinsed several times with an ice-cold buffer containing 50 mM Tris-HCl (pH 7.4) and 0.5% BSA using a 96-sample cell harvester (Unifilter, Packard). The filters are dried then counted for radioactivity in a scintillation counter (Topcount, Packard) using a scintillation cocktail (Microscint O, Packard).
The standard reference compound is CP 55940 which is tested in each experiment at several concentrations to obtain a competition curve from which its IC50 is calculated.
In Table 5, blank entries for Ki indicate that the observed binding was too weak to measure a Ki value.

[2] = biological target: human adenosine A1 receptor (Homo sapiens (Human), UniProt P30542); test: Adenosine receptor binding assay, A1 ([3H]DPCPX inhibition binding on membranes); details: 1 nM [3H]DPCPX, 25° C., 1 h; Ki from IC50 by Cheng-Prusoff
human adenosine A1 receptor, sequence (P30542 whole entry): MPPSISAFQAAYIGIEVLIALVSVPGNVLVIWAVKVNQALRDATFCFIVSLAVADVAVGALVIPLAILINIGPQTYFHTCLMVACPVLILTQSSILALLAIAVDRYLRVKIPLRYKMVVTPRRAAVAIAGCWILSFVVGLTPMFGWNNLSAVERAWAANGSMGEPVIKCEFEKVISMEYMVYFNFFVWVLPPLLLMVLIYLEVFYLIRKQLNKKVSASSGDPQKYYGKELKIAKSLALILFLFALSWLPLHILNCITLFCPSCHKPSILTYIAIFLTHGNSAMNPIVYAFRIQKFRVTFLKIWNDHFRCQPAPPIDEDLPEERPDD
Method: (§1) Inhibition binding assays were performed using 0.2 μg of membranes prepared from HEK293 cells infected with BacMam human adenosine A2A receptor or 1.4 μg of membranes prepared from HEK293 cells infected with BacMam human adenosine A1 receptor. Membranes were incubated in 50 mM Tris-HCl (HEK293-hA2A; pH 7.4) or 50 mM Tris-HCl, 100 mM NaCl, 10 mM MgCl2 (CHO-hA1; pH 7.4) in the presence of varying concentrations of test compound and 1 nM [^3H]ZM241385 (HEK293-hA2A) or [^3H]DPCPX (CHO-hA1) at 25° C. for 1 h. The assay was then terminated by rapid filtration onto GF/B grade Unifilter plates using a TomTec cell harvester, followed by 5×0.5 ml washes with ddH2O. Nonspecific binding was defined in the presence of 1 μM CGS15943 (HEK293-hA2A) or 1 μM DPCPX (CHO-hA1). Bound radioactivity was determined by liquid scintillation counting and inhibition curves were analysed using a four-parameter logistic equation. IC50 values were converted to Ki values with the Cheng-Prusoff equation using a KD value derived from saturation binding studies.

[3] = biological target: human adenosine A2A receptor (Homo sapiens (Human), UniProt P29274); test: Adenosine receptor binding assay, A2A ([3H]ZM241385 inhibition binding on HEK293 membranes); details: 1 nM [3H]ZM241385, 25° C., 1 h; Ki from IC50 by Cheng-Prusoff
human adenosine A2A receptor, sequence (P29274 whole entry): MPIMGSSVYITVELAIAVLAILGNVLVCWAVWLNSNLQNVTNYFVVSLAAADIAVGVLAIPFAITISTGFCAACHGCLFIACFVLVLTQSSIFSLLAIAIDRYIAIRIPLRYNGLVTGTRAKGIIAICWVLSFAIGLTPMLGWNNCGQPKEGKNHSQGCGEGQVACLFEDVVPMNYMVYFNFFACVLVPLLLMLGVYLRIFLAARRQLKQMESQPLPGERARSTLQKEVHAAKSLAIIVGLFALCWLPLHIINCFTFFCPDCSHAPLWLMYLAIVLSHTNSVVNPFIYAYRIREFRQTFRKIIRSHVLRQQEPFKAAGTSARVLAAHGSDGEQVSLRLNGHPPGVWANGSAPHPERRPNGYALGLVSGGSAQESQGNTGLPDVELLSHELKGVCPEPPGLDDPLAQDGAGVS
Method: as §1

human CB1 receptor, sequence (P21554 whole entry): as the sequence (P21554 whole entry) above

SMILES	IC50 (human CB1 receptor) [µM]	Ki [1] [µM]	A1 pKi [2]	A2A pKi [3]
C[C@@H]1CC(c2c(-c3ccccc3)nc(N)n3c(=O)n(CCC(F)(F)F)nc23)=C[C@H](C)O1 (relative stereo) [Example 2-1, 5-amino-8-[(cis)-2,6-dimethyl-3,6-dihydro-2H-pyran-4-yl]-7-phenyl-2-(3,3,3-trifluoropropyl)-[1,2,4]triazolo[4,3-c]pyrimidin-3-one]	72.2	31.5	6.3	8.6
C[C@@H]1CN(c2c(-c3ccccc3)nc(N)n3c(=O)n(CCC(F)F)nc23)C[C@H](C)O1 [Example 1-3, 5-amino-2-(3,3-difluoropropyl)-8-[(cis)-2,6-dimethylmorpholin-4-yl]-7-phenyl-[1,2,4]triazolo[4,3-c]pyrimidin-3-one]	–	–	<5.4	7.1
C[C@@H]1CN(c2c(-c3ccc(F)cc3)nc(N)n3c(=O)n(CCC(F)(F)F)nc23)C[C@H](C)O1 [Example 1-5, 5-amino-8-[(cis)-2,6-dimethylmorpholin-4-yl]-7-(4-fluorophenyl)-2-(3,3,3-trifluoropropyl)-[1,2,4]triazolo[4,3-c]pyrimidin-3-one]	–	–	<5.5	7.3
CCCn1nc2c(N3C[C@@H](C)O[C@@H](C)C3)c(-c3ccc(F)cc3)nc(N)n2c1=O [Example 1-6, 5-amino-8-[(cis)-2,6-dimethylmorpholin-4-yl]-7-(4-fluorophenyl)-2-propyl-[1,2,4]triazolo[4,3-c]pyrimidin-3-one]	–	–	6.4	6.9
C[C@@H]1CN(c2c(-c3ccccc3)nc(N)n3c(=O)n(C[C@H]4CCCO4)nc23)C[C@H](C)O1 [Example 1-8, 5-amino-8-[(cis)-2,6-dimethylmorpholin-4-yl]-7-phenyl-2-[[(2R)-tetrahydrofuran-2-yl]methyl]-[1,2,4]triazolo[4,3-c]pyrimidin-3-one]	> 100	–	–	–
C[C@@H]1CN(c2c(-c3ccccc3)nc(N)n3c(=O)n(CCN4CCCCC4)nc23)C[C@H](C)O1 [Example 1-9, 5-amino-8-[(cis)-2,6-dimethylmorpholin-4-yl]-7-phenyl-2-[2-(1-piperidyl)ethyl]-[1,2,4]triazolo[4,3-c]pyrimidin-3-one]	–	–	<5.5	6.7
C[C@@H]1CN(c2c(-c3ccccc3)nc(N)n3c(=O)n(C[C@H]4COCCN4)nc23)C[C@H](C)O1 [Example 1-10, 5-amino-8-[(cis)-2,6-dimethylmorpholin-4-yl]-2-[[(3S)-morpholin-3-yl]methyl]-7-phenyl-[1,2,4]triazolo[4,3-c]pyrimidin-3-one]	–	–	<5.4	6.9
C[C@@H]1CN(c2c(-c3ccccc3)nc(N)n3c(=O)n(C[C@@H]4COCCN4)nc23)C[C@H](C)O1 [Example 1-11, 5-amino-8-[(cis)-2,6-dimethylmorpholin-4-yl]-2-[[(3R)-morpholin-3-yl]methyl]-7-phenyl-[1,2,4]triazolo[4,3-c]pyrimidin-3-one]	–	–	<5.6	6.7
C[C@@H]1CN(c2c(-c3ccccc3)nc(N)n3c(=O)n(C[C@H]4COCCN4C)nc23)C[C@H](C)O1 [Example 1-12, 5-amino-8-[(cis)-2,6-dimethylmorpholin-4-yl]-2-[[(3S)-4-methylmorpholin-3-yl]methyl]-7-phenyl-[1,2,4]triazolo[4,3-c]pyrimidin-3-one]	–	–	<5.4	6.9
C[C@@H]1CN(c2c(-c3ccccc3)nc(N)n3c(=O)n(C[C@@H]4COCCN4C)nc23)C[C@H](C)O1 [Example 1-13, 5-amino-8-[(cis)-2,6-dimethylmorpholin-4-yl]-2-[[(3R)-4-methylmorpholin-3-yl]methyl]-7-phenyl-[1,2,4]triazolo[4,3-c]pyrimidin-3-one]	–	–	<5.4	7.1
COc1ncccc1Cn1nc2c(N3C[C@@H](C)O[C@@H](C)C3)c(-c3ccccc3)nc(N)n2c1=O [Example 1-15, 5-amino-8-[(cis)-2,6-dimethylmorpholin-4-yl]-2-[(2-methoxy-3-pyridyl)methyl]-7-phenyl-[1,2,4]triazolo[4,3-c]pyrimidin-3-one]	–	–	6.4	8.4
C[C@@H]1CN(c2c(-c3ccccc3)nc(N)n3c(=O)n(Cc4cccnn4)nc23)C[C@H](C)O1 [Example 1-16, 5-amino-8-[(cis)-2,6-dimethylmorpholin-4-yl]-7-phenyl-2-(pyridazin-3-ylmethyl)-[1,2,4]triazolo[4,3-c]pyrimidin-3-one]	–	–	6.1	7.2
C[C@@H]1CN(c2c(-c3ccccc3)nc(N)n3c(=O)n(CCc4ccccc4)nc23)C[C@H](C)O1 [Example 1-17, 5-amino-8-[(cis)-2,6-dimethylmorpholin-4-yl]-7-phenyl-2-(2-phenylethyl)-[1,2,4]triazolo[4,3-c]pyrimidin-3-one]	–	–	<5.8	7.2
C[C@@H]1CC(c2c(-c3ccccc3)nc(N)n3c(=O)n(CCC(F)(F)F)nc23)C[C@H](C)O1 (stereo partly drawn) [Example 2-2, 5-amino-8-[(cis)-2,6-dimethyltetrahydropyran-4-yl]-7-phenyl-2-(3,3,3-trifluoropropyl)-[1,2,4]triazolo[4,3-c]pyrimidin-3-one]	–	–	<5.5	7.4
Cc1cc(-c2c(-c3ccccc3)nc(N)n3c(=O)n(Cc4ccc(F)cn4)nc23)cc(C)c1O [Example 3-1, 5-amino-2-[(5-fluoro-2-pyridyl)methyl]-8-(4-hydroxy-3,5-dimethyl-phenyl)-7-phenyl-[1,2,4]triazolo[4,3-c]pyrimidin-3-one]	> 100	–	–	–

The next lines start with the values.

IC50 (human CB1 receptor) [µM]	Ki [1] [µM]	A1 pKi [2]	A2A pKi [3]	SMILES
–	–	6.9	9.8	Cc1ccc(Cn2nc3c(-c4cc(C)c5ncoc5c4)c(-c4ccc(F)cc4)nc(N)n3c2=O)nc1 [Example 4-3, 5-amino-7-(4-fluorophenyl)-8-(4-methyl-1,3-benzoxazol-6-yl)-2-[(5-methyl-2-pyridyl)methyl]-[1,2,4]triazolo[4,3-c]pyrimidin-3-one]
17.9	–	–	–	Cc1ocnc1Cn1nc2c(-c3cc(C)c4ncoc4c3)c(-c3ccccc3)nc(N)n2c1=O [Example 4-6, 5-amino-8-(4-methyl-1,3-benzoxazol-6-yl)-2-[(5-methyloxazol-4-yl)methyl]-7-phenyl-[1,2,4]triazolo[4,3-c]pyrimidin-3-one]
–	–	7.7	9.9	Cc1nc(Cn2nc3c(-c4cc(C)c5ncoc5c4)c(-c4ccc(F)cc4)nc(N)n3c2=O)c(C)o1 [Example 4-7, 5-amino-2-[(2,5-dimethyloxazol-4-yl)methyl]-7-(4-fluorophenyl)-8-(4-methyl-1,3-benzoxazol-6-yl)-[1,2,4]triazolo[4,3-c]pyrimidin-3-one]
–	–	8.4	9.6	Cc1ocnc1Cn1nc2c(-c3cc(C)c4[nH]ncc4c3)c(-c3ccc(F)cc3)nc(N)n2c1=O [Example 4-8, 5-amino-7-(4-fluorophenyl)-8-(7-methyl-1H-indazol-5-yl)-2-[(5-methyloxazol-4-yl)methyl]-[1,2,4]triazolo[4,3-c]pyrimidin-3-one]
–	–	8.7	10.0	[2H]c1c([2H])c([2H])c(-c2nc(N)n3c(=O)n(Cc4ncoc4C)nc3c2-c2cc(C)c3[nH]ncc3c2)c([2H])c1[2H] [Example 4-10, 5-amino-8-(7-methyl-1H-indazol-5-yl)-2-[(5-methyloxazol-4-yl)methyl]-7-(2,3,4,5,6-pentadeuteriophenyl)-[1,2,4]triazolo[4,3-c]pyrimidin-3-one]
